Experimental data taken from US4798807A, “Monoclonal antibodies and method for detecting dioxins and dibenzofurans” (priority 1986, dated 1989).

Experiments:
monoclonal antibody DD-5 = test: Competition ELISA with monoclonal antibody DD-5; type: binding, Biozzi mice; settings: competitor vs monoclonal antibody DD-5; plate coated with A-triCDD-RSA
Procedure: (§1) In this case the hybridomas were then screened for their ability to distinguish A-triCDD-BSA and A-triCDD-RSA from BSA and RSA. On the basis of this initial screen about 25 stable, antibody-producing colonies were isolated, subcloned, and frozen. The remaining clones were again screened for their abilities to recognize free TCDD in suspension. Experimentally, on the order of 10-100 nanograms of TCDD in hexane was dried, 0.5 ml of saline with BSA (1 mg/ml) was added and sonificated for 2 hrs. […] Identical procedures were followed for other dioxin isomers. A dilution series in microtiter plate wells was then made with the suspended TCDD, antibody adde, and the competition ELISA completed. Competition ELISA test procedures are discussed in detail in the following reference: Butt, W. R. (1984) "Practical Immunoassay: The State of the Art", Marcel Dekker, Inc., N.Y., N.Y.
(§2) A large part of the success that we have had in characterizing the binding specificities of our monoclonal antibodies comes from having developed a reliable competition ELISA protocol. Our preferred assay starts from stock solutions at 10 ppm in hexane of the various compounds listed in Table I. 10 μl of hexane solution is aliquoted into a small vial, evaporated under a stream of nitrogen gas, and 500 μl of a 1 mg/ml solution of BSA in phosphate buffered saline with 0.1% BSA is added. The vial is capped and placed in an ultrasonic cleaning waterbath for two hours. Two hours of sonification gives a more reproducible assay than does an hour. During the sonification, the hexane appears to evaporate completely, and one is left with an aqueous solution containing the dioxin. Microtiter plates coated with A-triCDD-RSA are blocked with a three percent solution of ovalbumin and a two-fold dilution series of sonificated dioxin-BSA is then made, covering the range 100 ppb-0.1 ppb. In each well of the plate 100 μl of the sonificated dioxin-BSA solution is mixed with n equal volume of antibody. The antibody partitions between the dioxin adsorbed to the BSA, and the A-tri-CDD-RSA on the plate.
(§3) A-TriCDD-RSA was adsorbed onto the surface of the wells of a microtiter plate. The various competitors listed were suspended in saline containing bovine serum albumin (BSA). These solutions were made by sonificating 10 μl of dioxin solution in hexane with 500 μl of saline-BSA. A dilution series of these dioxin-BSA solutions was then made covering the range of 100-0.2 ppb, and placed in the microtiter plate wells. An equal volume of DD-1 monoclonal antibody was then added, and allowed to react for 1 hour. Tne antibody binds either to the A-TriCDD-RSA on the plate or the dioxin in solution. After the hour, the solution phase is removed, the plate washed, and it is reincubated for an hour with peroxidase-conjugated goat-anti-mouse-immunoglobulins. A second washing is then done, and substrate (ABTS) added to the peroxidase. The enzyme-antibody conjugate and substrate function as a "developer", allowing the visualization of the DD-1 bound to the A-triCDD-RSA on the plate. Results are then expressed as a fraction of the response in wells with no competitor. […] At about 20 ppb of 2,3,7,8-TCDD the relative ELISA response is half of control, meaning that half the DD-1 antibody bound to the solution phase dioxin and half bound to the A-triCDD-RSA on the plate. For 1,2,3,7(8)-TCDD, 50% inhibition occurs at about 4 ppb, indicating the DD-1 prefers 1,2,3,7(8)-TCDD to 2,3,7,8-TCDD.
(§4) The FIGURE and Table II show representative competition data using several chlorinated compounds as competitors. From such data, one can determine the concentration required to inhibit antibody binding by 50% (I50). Table II lists the I50 for all compounds tested with the antibodies. In reporting these values, factors of two are about the limit of significance. […] The binding specificities of these antibodies are highly desirable, since they prefer the most toxic of the dioxin and dibenzofuran isomers.

monoclonal antibody DD-4 = test: Competition ELISA with monoclonal antibody DD-4; type: binding, BALB/c mice; settings: competitor vs monoclonal antibody DD-4; plate coated with A-triCDD-RSA
Procedure: as §1, §2, §3, §4

monoclonal antibody DD-6 = test: Competition ELISA with monoclonal antibody DD-6; type: binding, Biozzi mice; settings: competitor vs monoclonal antibody DD-6; plate coated with A-triCDD-RSA
Procedure: as §1, §2, §3, §4

monoclonal antibody DD-3 = test: Competition ELISA with monoclonal antibody DD-3; type: binding, BALB/c mice; settings: competitor vs monoclonal antibody DD-3; plate coated with A-triCDD-RSA
Procedure: as §1, §2, §3, §4

monoclonal antibody DD-1 = test: Competition ELISA with monoclonal antibody DD-1; type: binding, Biozzi mice; settings: competitor vs monoclonal antibody DD-1; plate coated with A-triCDD-RSA
Procedure: as §1, §2, §3, §4

Compound	I50 (inhibits antibody binding by 50%) (monoclonal antibody DD-5)	I50 (inhibits antibody binding by 50%) (monoclonal antibody DD-4)	I50 (inhibits antibody binding by 50%) (monoclonal antibody DD-6)	I50 (inhibits antibody binding by 50%) (monoclonal antibody DD-3)	I50 (inhibits antibody binding by 50%) (monoclonal antibody DD-1)
O=S1OCC2C(CO1)C1(Cl)C(Cl)=C(Cl)C2(Cl)C1(Cl)Cl (centres unmarked) [Endosulfan]	> 2000 ng	> 2000 ng	> 2000 ng	> 2000 ng	> 2000 ng
Oc1c(Cl)c(Cl)c(Cl)c(Cl)c1Cl [Pentachlorophenol]	> 2000 ng	> 2000 ng	> 2000 ng	> 2000 ng	> 2000 ng
Clc1ccccc1 [Chlorobenzene]	> 2000 ng	> 2000 ng	> 2000 ng	> 2000 ng	> 2000 ng
Clc1ccc(-c2ccc(Cl)c(Cl)c2)cc1Cl [3,3',4,4'-TCBP]	> 10 ng	> 200 ng	100 ng	> 200 ng	> 200 ng
Oc1cc(Cl)c(Cl)cc1O [4,5-Dichlorocatechol]	> 2000 ng	> 2000 ng	> 2000 ng	> 2000 ng	2000 ng
Nc1c(Cl)ccc2c1Oc1cc(Cl)c(Cl)cc1O2 [1-amino-2,7,8-TriCDD]	> 0.02 ng	> 0.01 ng	0.02 ng	> 0.04 ng	0.2 ng
Clc1ccc(-c2cc(Cl)c(Cl)c(Cl)c2Cl)c(Cl)c1 [2,2',3,4,4',5-Hexa-CBP]	> 10 ng	> 200 ng	> 200 ng	> 200 ng	> 200 ng
O=[N+]([O-])c1cc(Cl)ccc1Cl [2,5-Dichloronitrobenzene, 2,5-Dichloronitro-benzene]	2000 ng	> 2000 ng	700 ng	2000 ng	90 ng
Oc1cc(Cl)c(Cl)cc1Cl [2,4,5-Trichlorophonol]	> 2000 ng	> 2000 ng	> 2000 ng	> 2000 ng	800 ng
Clc1cc(-c2cc(Cl)c(Cl)c(Cl)c2Cl)c(Cl)c(Cl)c1Cl [2,2',3,3',4,4',5,5'-Octa-CBP]	> 10 ng	> 200 ng	> 200 ng	> 200 ng	> 200 ng
Toxaphene	> 2000 ng	> 2000 ng	> 2000 ng	> 2000 ng	–
Clc1cc(Cl)c2c(c1Cl)Oc1ccccc1O2 [1,2,4-Tri-CDD]	> 10 ng	> 200 ng	> 200 ng	> 200 ng	> 200 ng
ClC1=C(Cl)C2(Cl)C3C4C=CC(C4)C3C1(Cl)C2(Cl)Cl (centres unmarked) [Aldrin]	> 2000 ng	> 2000 ng	> 2000 ng	> 2000 ng	> 2000 ng
Oc1ccc(Cl)cc1Cl [2,4-Dichlorophenol]	> 2000 ng	> 2000 ng	> 2000 ng	> 2000 ng	2000 ng
O=[N+]([O-])c1c(Cl)ccc2c1Oc1cc(Cl)c(Cl)cc1O2 [1-nitro-2,7,8-TriCDD]	–	0.02 ng	> 0.004 ng	0.15 ng	0 ng
Clc1ccc(-c2c(Cl)cc(Cl)c(Cl)c2Cl)c(Cl)c1Cl [2,2',3,3',4,4',6-Hepta-CBP]	> 10 ng	> 200 ng	> 200 ng	> 200 ng	> 200 ng
Clc1ccc2c(c1)Oc1c(Cl)c(Cl)c(Cl)c(Cl)c1O2 [1,2,3,4,7-penta-CDD]	–	> 2 ng	> 2 ng	> 2 ng	> 2 ng
Clc1ccc(Cl)c(-c2c(Cl)c(Cl)c(Cl)c(Cl)c2Cl)c1 [2,2',3,4,5,5',6-Hepta-CBP]	> 10 ng	> 200 ng	> 200 ng	> 200 ng	> 200 ng
ClC1=C(Cl)C2(Cl)C3C(Cl)C(Cl)CC3C1(Cl)C2(Cl)Cl (centres unmarked) [Chlordane]	> 2000 ng	> 2000 ng	> 2000 ng	> 2000 ng	> 2000 ng
Clc1ccc(C(c2ccc(Cl)cc2)C(Cl)(Cl)Cl)cc1 [DDT]	> 2000 ng	> 2000 ng	> 2000 ng	> 2000 ng	> 2000 ng
Clc1cc2c(cc1Cl)Oc1c(cc(Cl)c(Cl)c1Cl)O2 [1,2,3,7,8-penta-CDD]	–	0.02 ng	> 0.004 ng	0.15 ng	0.2 ng
ClC1=C(Cl)C2(Cl)C3C(Cl)C=CC3C1(Cl)C2(Cl)Cl (centres unmarked) [Heptachlor]	> 2000 ng	> 2000 ng	> 2000 ng	> 2000 ng	> 2000 ng
O=C(O)COc1ccc(Cl)cc1Cl [2,4-Dichlorophenoxyacetic, 2,4-Dichlorophenoxy-acetic]	–	> 2000 ng	–	> 2000 ng	> 2000 ng
Brc1cc2c(cc1Br)Oc1cc(Br)c(Br)cc1O2 [2,3,7,8-tetra-Bromo-DD]	–	1 ng	> 2 ng	1 ng	0.05 ng
